Experimental data: US9090657B2, “Compound and methods for its production” (NEUROVIVE PHARMACEUTICAL AB, priority 2011, dated 2015)
Like-named read-outs stand apart in the source and are kept apart here.

What was measured:
[1] = target: OATP1B1 (Homo sapiens (Human), UniProt Q9Y6L6); test: Uptake transporter inhibition, OATP1B1; type: cell-based; conditions: CHO cells, probe substrate E3S
Description: (§1) To assess the inhibition of the […] and OAT1B3 uptake transporters, an in vitro uptake transporter assay from Solvo Biotechnology Inc. was used. […] Parental cell line CHO-K was used as negative control. […] Before experiments the medium was aspirated by vacuum suction, cells were washed with 2×100 μl of Krebs-Henseleit buffer pH 7.3 (prepared from Sigma chemicals, Sigma-Aldrich, St Louis, Mo.). Uptake experiments were carried out at 37° C. in 50 μl of Krebs-Henseleit buffer (pH 7.3) containing the probe substrate and the TA or solvent, respectively. […] The probe substrate for the OATP1B1 assay was E3S (0.1 μM) and for the OATP1B3 assay was Fluo-3 (10 μM). The translocated amount of probe substrate was determined for each well in cpm. Relative activities were calculated from the equation: Activity%=(A−B)/(C−D)×100

[2] = target: CypA (Homo sapiens (Human), UniProt P62937); test: biochemical
Description: An alternative methodology for analysing interaction with cyclophilins is described as follows: The PPlase activity of recombinant CypA or D, produced by thrombin cleavage of GST-CypA or D, was determined by following the rate of hydrolysis of N-succinyl-Ala-Ala-Pro-Phe-p-nitroanilide by chymotrypsin. Chymotrypsin only hydrolyzes the trans form of the peptide, and hydrolysis of the cis form, the concentration of which is maximized by using a stock dissolved in trifluoroethanol containing 470 mM LiCl, is limited by the rate of cis-trans isomerization. CypA or D was equilibrated for 1 h at 5° C. with selected test article using a drug concentration range from 0.1 to 20 nM. The reaction was started by addition of the peptide, and the change in absorbance was monitored spectrophotometrically at 10 data points per second. The blank rates of hydrolysis (in the absence of CypA or D) were subtracted from the rates in the presence of CypA or D. The initial rates of the enzymatic reaction were analyzed by first-order regression analysis of the time course of the change in absorbance.
To assess the direct inhibition of CypA Peptidyl Prolyl cis-trans Isomerase (PPlase) activity, a method was used as described in the general methods.

[3] = Anti-metabolic effect (MTS) in replicon cells; conditions: human
Description: (§2) Dilution series are prepared; each dilution series is performed in at least duplicate.
(§3) The selectivity index (SI), indicative of the therapeutic window of the compound, is calculated as CC50/EC50.
(§4) Compounds were analysed in the genotype 1b replicon assay using Huh5.2 cells as described in the General Methods.

[4] = system: HCV genotype 1b I389luc-ubi-neo/NS3-3'/5.1 replicon in Huh5.2 cells; test: HCV genotype 1b replicon assay, antiviral effect (luciferase); type: cell-based, Hepatitis C virus; conditions: for EC50: Hepatitis C virus, Huh-5-2, 72 h; for Selectivity index (CC50/EC50): Huh5.2 replicon assay
Description: as §2
For the evaluation of antiviral effects, assay medium is aspirated and the cell monolayers are washed with PBS. The wash buffer is aspirated, 25 μL of Glo Lysis Buffer (Cat. No. E2661, Promega) is added after which lysis is allowed to proceed for 5 min at room temperature. Subsequently, 50 μL of Luciferase Assay System (Cat. No. E1501, Promega) is added and the luciferase luminescence signal is quantified immediately (1000 ms integration time/well, Safire^2, Tecan). Relative luminescence units are converted to percentage of untreated controls.
as §3, §4

[5] = system: HIV; test: microbe, parasite or virus in culture; type: cell-based; conditions: Human immunodeficiency virus 1, HeLa, read-out: HeLa cells EC50
Description: Briefly, human PBMCs were purified from fresh blood by banding on Ficoll-Hypaque (30 min, 800 g, 25° C.). Primary human CD4+ T cells were purified from PBMCs by positive selection with anti-CD4 Dynabeads and subsequent release using Detachabead. […] Three days after stimulation, cells were split 1:2 in medium containing IL-2 (200 units/ml final concentration). Cultures were then split 1:2 every 2 days in IL-2 medium and infected with HIV at 7 days after stimulation. […] To obtain monocyte-derived macrophages, cells were allowed to adhere to plastic and cultured for 6 days to allow differentiation.
CD4+ HeLa cells, Jurkat cells, activated CD4+ peripheral blood T-lymphocytes and macrophages (500,000 cells/100 μL) were incubated with pNL4.3-GFP (X4 virus) or pNL4.3-BaL-GFP (R5 virus) (100 ng of p24) in the presence of increasing concentrations of test article, Forty-eight hours later, infection was scored by analyzing the percentage of GFP-positive cells by FACS and EC50 calculated.
Compounds were analysed in an HIV antiviral assay using HeLa cells as described in the General Methods.

[6] = target: P-glycoprotein (Pgp/MDR1) (Homo sapiens (Human), UniProt P08183); test: Inhibition of Pgp transporter using MDR1-MDCK cells; type: cell-based; conditions: loperamide substrate
Description: To assess the inhibition of the P-glycoprotein (Pgp/MDR1) transporter, an in vitro ATPase assay from Cyprotex was used. MDR1—MDCK cells obtained from the NIH (Rockville, Md., USA) were used. Following culture, the monolayers were prepared by rinsing both basolateral and apical surfaces twice with buffer at pH 7.4 and 37° C. […] For the apical to basolateral study (A-B), buffer at pH 7.4 was removed from the apical compartment and replaced with loperamide dosing solutions before being placed in the ‘companion’ plates. The solutions were prepared by diluting loperamide in DMSO with buffer to give a final loperamide concentration of 5 μM (final DMSO concentration adjusted to 1%). The fluorescent integrity marker Lucifer yellow was also included in the dosing solution. The experiment was performed in the presence and absence of the test compound (applied to both the apical and basolateral compartments). For basolateral to apical (B-A) study, the P-glycoprotein substrate, loperamide (final concentration=5 μM) was placed in the basolateral compartment. The experiment was performed in the presence and absence of the test compound (applied to the apical and basolateral compartments). […] The test compound was assessed at 0.1, 0.3, 1, 3, 10, 30 and 50 μM. […] After analysis, an IC50 was calculated (i.e., inhibitor concentration (test drug) achieving half maximal inhibition effect).

[7] = target: MRP3 (Homo sapiens (Human), UniProt O15438); test: Vesicular efflux transporter inhibition, MRP3
Description: (§5) To assess the inhibition of the MRP2, MRP3 and BSEP efflux transporters, an in vitro vesicular transporter assay from Solvo Biotechnology Inc. was used. […] In the case of MRP2 and MRP3 transporters reactions were carried out in the presence of 2 mM glutathione. Reaction mixtures were preincubated for ten minutes at 37° C. Reactions were started by the addition of 25 μl of 12 mM MgATP (4 mM final concentration in assay) or assay buffer for background controls. Reactions were stopped by adding 200 μl of ice-cold washing buffer and immediately followed by filtration on glass fiber filters in a 96-well format (filter plate). Scintillation buffer was added to the washed and dried filter plate and scintillation was counted subsequently. Probe substrates were taurocholate (2 μM) for BSEP vesicles and E217βG (1 μM) for MRP2 and MRP3 vesicles. For all wells the translocated amount of the probe substrate was determined in cpm units. Relative activities were calculated with the following equation:
(§6) Activity %=(A−B)/(C−D)×100 Where A=translocated amount of substrate in the presence of TA and ATP, B=translocated amount of substrate in the presence of TA, C=translocated amount of substrate in the presence of solvent and ATP and D=translocated amount of substrate in the presence of solvent. […]

[8] = Mouse in vivo oral and iv PK; conditions: male, CD1 mice, whole blood; for clearance: iv at 1 mg/kg; for AUC(0-t): read-out: po AUClast
Description: For sanglifehrin analogues, whole blood is analysed. Compounds are formulated in 5% ethanol/5% cremophor EL/90% saline for both p.o. and i.v. administration. Groups of 3 male CD1 mice are dosed with either 1 mg/kg i.v. or 5 or 10 mg/kg p.o. Blood samples (40 μL) are taken via saphenous vein, pre-dose and at 0.25, 0.5, 2, 8, and 24 hours, and diluted with an equal amount of dH20 and put on dry ice immediately. Samples are stored at −70° C. until analysis. The concentration of the compound of the invention or parent compound in the sample is determined via LCMS as follows: 20 μL of blood:H2O (1:1, v/v)/PK sample is added with 20 μL Internal standard (hydroxyl macrocycle, 6) at 100 ng/mL, 20 μL working solution/MeOH and 150 μL of ACN, vortexed for 1 minute at 1500 rpm, and centrifuged at 12000 rpm for 5 min. The supernatant is then injected into LC-MS/MS. The time-course of blood concentrations is plotted and used to derive area under the whole blood concentration-time curve (AUC—which is directly proportional to the total amount of unchanged drug that reaches the systemic circulation). These values are used to generate PK parameters where possible.
To assess the pharmacokinetics of the compounds in an in vivo setting, compounds were dosed po at 10 or 5 mg/kg and iv at 1 mg/kg to groups of CD1 mice. Pharmacokinetic analysis was carried out as described in the general methods. The PK parameters are shown below.

[9] = target: MRP2 (Homo sapiens (Human), UniProt Q92887); test: Vesicular efflux transporter inhibition, MRP2
Description: as §5, §6

[10] = target: OATP1B3 (Homo sapiens (Human), UniProt Q9NPD5); test: Uptake transporter inhibition, OATP1B3; type: cell-based; conditions: CHO cells, probe substrate Fluo-3
Description: as §1

[11] = target: Bile Salt Export Pump (BSEP) (Homo sapiens (Human), UniProt O95342); test: Vesicular efflux transporter inhibition, BSEP; type: biochemical; conditions: membrane vesicles, probe taurocholate
Description: Relative activities were calculated with the following equation: […]

[12] = system: Huh5.2 cells; test: Anti-metabolic effect (MTS) in replicon cells; conditions: Huh5.2 cells, MTS, 72 hours
Description: as §2, §3, §4

[13] = system: HBV; conditions: Ptak et al. 2008; read-out: IC50 against HBV; cited from earlier work

For `CC(=O)CC[C@H]1C(=O)N[C@@H](C(C)C)C(=O)N[C@@H](Cc2cc(O)cc(F)c2)C(=O)N2CCCC(N2)C(=O)O[C@H](/C(C)=C/C=C/C(=O)N2CCCCO2)C/C=C/C=C/[C@H](O)[C@H](C)[C@H]1O` (stereo partly drawn) [Compound 24], the IC50 [1] was 4.3 µM, the IC50 [2] was 0.00031 µM and the CC50 at 72 h [3] was greater than 100 µM. The EC50 [4] was 0.033 µM, the “Selectivity index (CC50/EC50)” value [4] was greater than 3030 and the EC50 [5] was 0.13 µM. For the same compound, the IC50 [6] was greater than 50 µM, the IC50 [7] was greater than 50 µM and the clearance [8] was 0.017 L/h/kg. For the same compound, the AUC(0-t) ([8]; po 5 mg/kg) was 8.22 µg·h/mL, the IC50 [9] was greater than 50 µM and the IC50 [10] was 1.8 µM. The IC50 [11] was 12.3 µM.
For `Nc1nc(=O)n([C@@H]2CS[C@H](CO)O2)cc1F` [Emtricitabine], the EC50 [5] was 0.4 µM.
Work on `CC[C@H]1C[C@H](C)[C@@]2(NC1=O)O[C@@H](C[C@H](O)[C@@H](C)CC/C=C/C=C(\C)[C@@H]1C/C=C/C=C/[C@H](O)[C@H](C)[C@@H](O)[C@@H](CCC(C)=O)C(=O)N[C@@H](C(C)C)C(=O)N[C@@H](Cc3cccc(O)c3)C(=O)N3CCC[C@H](N3)C(=O)O1)[C@H](C)[C@H](O)[C@@H]2C` [Sanglifehrin A, 5, Sanglifehrin A] yielded a CC50 at 72 h [3] of 9.1 µM, an EC50 [4] of 0.318 µM and a clearance [8] of 0.054 L/h/kg. For the same compound, the AUC(0-t) ([8]; po 10 mg/kg) was 2.33 µg·h/mL.
With `C/C=C/C[C@@H](C)[C@@H](O)[C@H]1C(=O)N[C@@H](CC)C(=O)N(C)[C@H](C)C(=O)N(CC)[C@@H](C(C)C)C(=O)N[C@@H](C(C)C)C(=O)N(C)[C@@H](CC(C)C)C(=O)N[C@@H](C)C(=O)N[C@H](C)C(=O)N(C)[C@@H](CC(C)C)C(=O)N(C)[C@@H](CC(C)C)C(=O)N(C)[C@@H](C(C)C)C(=O)N1C` [DEBIO-025, 2, DEBIO-025] the IC50 [1] was 0.45 µM, the IC50 ([2]; read-out: CypA PPIase IC50, recombinant CypA) was 0.0008 µM and the CC50 [12] was 11.2 µM. The EC50 [4] was 0.096 µM, the “Selectivity index (CC50/EC50)” value [4] was 111 and the EC50 [5] was 1.5 µM. The IC50 [6] was 0.72 µM, the IC50 [7] was greater than 50 µM and the IC50 [9] was 16 µM. The IC50 [10] was 0.19 µM, the IC50 [13] was 4.1 µM and the IC50 [11] was 0.18 µM.
With `CC(=O)CC[C@H]1C(=O)N[C@@H](C(C)C)C(=O)N[C@@H](Cc2cccc(O)c2)C(=O)N2CCC[C@H](N2)C(=O)O[C@H](/C(C)=C/CO)C/C=C/C=C/[C@H](O)[C@H](C)[C@H]1O` [Hydroxymacrocycle, 6] the CC50 at 72 h [3] was 83.6 µM, the EC50 [4] was 8.4 µM and the “Selectivity index (CC50/EC50)” value [4] was 9.9.
